Here are results for three compounds from publication PMC6222706, “Evaluation of the Antioxidant and Neuroprotectant Activities of New Asymmetrical 1,3-Diketones” (Molecules : A Journal of Synthetic Chemistry and Natural …, 2018).

Values after ≈ are worked out from the molar mass of the structure shown.

Data set [1] can be described thus: ABTS radical scavenging assay. The format is biochemical. The note with it: for IC50: 30 min incubation, EtOH, absorbance at 734 nm; for ABTS-TEAC100: Trolox Equivalent Antioxidant Capacity vs 100 µM solution of the substance, from ABTS assay. The method, then:
ABTS^+ radical was produced by reacting 2,2′-azino-bis-3-ethylbenzthiazoline-6-sulphonic acid (ABTS) 7 mM with K2S2O8 2.45 mM, both reactants dissolved in water, and at the volume ratio of 1:1. The mixture was stored in the dark at room temperature for 16 h. The ABTS^+ solution was diluted to give an absorbance of 0.750 ± 0.025 at 734 nm in EtOH. All the compounds tested were dissolved in EtOH. 150 µL of each compound solution was added to the wells of the 96-well plate, followed by the addition of 50 µL of the ABTS^+ radical solution. Final compound concentrations tested were 0, 5, 10, 20, 50, 100, 150, 200 µM. The absorbance change at 734 nm was recorded after 30 min incubation in the dark, and the percentage of radical scavenging was calculated for each concentration relative to a blank containing no scavenger. The degree of decolorization was calculated as the percentage reduction of absorbance. The ABTS^+ radical scavenging activity was calculated as follows: Percentage ABTS^+ radical scavenging activity = {1 − [As/Ac]} × 100(1) where As is the absorbance of the ABTS^+ radical solution containing samples and Ac the absorbance of the control solution without antioxidant. The percentages of ABTS^+ radical reduced were plotted against compound concentration. Trolox was used as a reference antioxidant. All the assays were carried out three times by quadruplicate for each compound.

Data set [2] in a line: Cytotoxicity in SH-SY5Y cells (MTT). The format is cell-based. The note with it: human, SH-SY5Y neuronal cells, concentration reducing cell viability to 50% of control. The method, then:
So, to study the neuroprotectant potential of β-diketones in the SH-SY5Y cell line, we firstly need to determine their cytotoxicity in the same cellular model. […] In addition to that, within each series, the introduction of a second fluorine atom in the left-hand side phenyl ring decreases also the cytotoxicity.
SH-SY5Y cells were seeded into 96-well plates at a density of 5 × 10^3 cells/well and grown in the incubator for 24 h. All compounds tested were dissolved and eventually further diluted in dimethylsulfoxide (DMSO). After overnight incubation, the cells were treated with different test concentrations (5, 10, 20, 50, 100, 150, 200 µM) in a final volume of 200 µL with four replicates each. […] Cell proliferation or viability was measured using the 3-(4,5-dimethylthiazol-2-yl)-2,5-diphenyl tetrazolium bromide (MTT) assay. After 24 h, 20 µL of MTT (5 mg/mL) was added to each well and the plate was incubated at 37 °C in the dark for 2 h. Supernatants were removed and the formazan crystals were solubilized in DMSO (200 µL/well), under 10 min shaking at room temperature. The reduction of MTT was quantified by absorbance at 570 nm Varioskan microplate reader (Thermo Fisher Scientific, Vantaa, Finland). Effects of the test compounds on cell viability were calculated using cells treated with vehicle as control. The data were subjected to linear regression analysis and the regression lines were plotted for the best fit. The IC50 (inhibition of cell viability) concentrations were calculated using the respective dose-response curves.

Data set [3] can be described thus: FRAP (Ferric Reducing Antioxidant Power) assay. The format is biochemical. The note with it: for FRAP-TEAC100: Trolox Equivalent Antioxidant Capacity vs 100 µM solution of the substance, from FRAP assay; for FRAP Assay (%) at 100 µM / FRAP Assay (%) at 200 µM: 30 min, 593 nm. The method, then: The assay was carried out according to the method of Benzie et al. with slight modifications, in a 96-well microplate. FRAP reagent was prepared by mixing 10 mL of 300 mM acetate buffer with 1 mL of 10 mM 2,4,6-tripyridyl-S-triazine (TPTZ) in HCl 40 mM and 1mL of FeCl3·6H2O 20 mM. Firstly, 190 µL of the FRAP reagent were added to all wells of the 96-well plate, followed by the addition to the well of 10 µL of the test compounds dissolved in Ethanol to reach the final concentrations assayed (0, 5, 10, 20, 50, 100, 150, 200 µM). After 30 min incubation in the dark, the absorbance was read at 593 nm. Trolox was used as assay control. Three different assays were carried out by quadruplicate for each compound.

The subject of a further data set is SH-SY5Y cells. The data set can be described thus: SH-SY5Y neuroprotection assay against H2O2 (MTT). The format is cell-based, human. The note with it: compound 5-50 µM for 24 h, then 200 µM H2O2 for 24 h. The protocol:
For neuroprotection experiments, SH-SY5Y cells were treated with test compound at different concentrations (5, 10, 20, 30, 40, and 50 µM) for 24 h. After the incubation period, cells were exposed to H2O2 200 µM for 24 h. At the end of the treatment, cell viability was measure with MTT.
Compound neuroprotection under H2O2-induced oxidative stress was assessed by MTT assay. Briefly, SH-SY5Y were seeded into 96-well plates at a density of 3 × 10^3 cells/well and grown in the incubator for 24 h. Cells were pretreated for 24 h with different compound concentrations (5, 10, 20, 30, 40, 50 µM). After the treatment period, cells were exposed to 200 µM H2O2 for 24 h. Cell viability was measured with MTT following the same procedure described above. Cell viability was expressed as the percentage of the control value (cells without treatment with H2O2).

A short description of data set [4]: Kinetic solubility by UV spectrometry in 10 mM PBS. The data set is classed as physicochemical. The note with it: 10 mM phosphate buffered saline, aqueous buffer, kinetic from dmso stock. The method, then:
Among the most important physicochemical parameters in drug-discovery, solubility and chemical stability in aqueous media are the determinants for non-toxic and brain-permeable drug-like compounds with good bioavailability. So, compounds with good aqueous solubility are the best candidates for drug-discovery progression. […] The assays were performed at room temperature, in 10 mM Phosphate Buffered Saline (PBS) from compound stocks in DMSO at 20 mM concentration.
A modified protocol was used from that described by Hoelke et al. for the determination of the kinetic solubility from DMSO compound solutions. A compound calibration curve (compound concentration vs. UV absorption) was prepared on a 48 well plate for each compound with concentrations in the range of 10 µM to […]. Each compound dilution was carried out by pipetting defined volumes of a 20 mM stock compound solution in DMSO into the wells and adding PBS 10 mM to reach a final volume of 500 µL/well. The final amount of DMSO per well was 2%. For the lower compound concentrations, an additional volume of DMSO was added into each well to reach the 2% of DMSO. Then, 200 µL of each dilution was transferred to a new 96 well plate for the measurement of the UV-spectra. One well in each row was left without compound as a blank and its UV absorbance was used as an offset correction. The experiments were carried out by duplicate.
(§1) In parallel compound saturation solutions were obtained and filtered from 20 mM compound stock in DMSO. So, 10 µL of 20 mM stock solution were dispensed to 190 µL of PBS 10 mM. The solutions were mixed, shaken in a microplate shaker for two hours, and then 160 µL of each solution were filtered and transferred to a new well plate for UV absorption measure. The compound stability in PBS 10 mM was determined at 24, 48 and 72 h with solutions prepared as those for the compound calibration curve.
Measurement of the UV-spectra was performed using a Varioskan microplate reader and spectra were taken in the range of 270–600 nm. Spectral bandwidth was set to 5 nm and the data pint interval was 10 nm. […]

Data set [5] can be described thus: Chemical stability in 10 mM PBS. The note with it: 6b, 7b at 400 µM, curcumin at 50 µM. The format is physicochemical. The method, then:
It is also important to know compound integrity at those concentrations used in biological assays, and for that, the chemical stability was determined in 10 mM PBS after 6 h, 24 h and 48 h.
as §1

Data set [6] can be described thus: DPPH radical scavenging assay. The format is biochemical. The note with it: antioxidant concentration that decreases initial DPPH^• concentration by 50%; 30 min, 517 nm. The protocol:
The assay was performed in a 96-well microplate. A 0.2 mM solution of 2,2-diphenyl-1-picryl-hydrazyl-hydrate (DPPH) in ethanol was prepared. All the compounds tested were dissolved in EtOH. Firstly, 150 µL of each compound solution was added to the wells of the 96-well plate, followed by the addition of 50 µL of the DPPH solution. Final compound concentrations tested were 0, 5, 10, 20, 50, 100, 150, 200 µM. The change in absorbance at 517 nm was measured after 30 min incubation in the dark. The free radical scavenging activity was calculated as inhibition using the following Equation (2): Percentage DPPH radical scavenging activity = {1 − [As/Ac]} × 100(2) where As is the absorbance of the DPPH solution containing samples and Ac the absorbance of the control solution without antioxidant but with DPPH. The percentages of DPPH reduced were plotted against compound concentration. The experiment was also conducted using Trolox as reference antioxidant. Assays were performed three times by quadruplicate for each compound.
A general note: The DPPH test is a chemical assay of radical scavenging.

Usually IC50 stands for the point on the concentration scale where inhibition reaches its midpoint. Usually melting point stands for the temperature of the solid-liquid transition. The compound `O=C(/C=C(O)/C=C/c1ccc(O)c(F)c1F)c1ccccc1` [Compound 7a, (2Z,4E)-5-(2,3-Difluoro-4-hydroxyphenyl)-3-hydroxy-1-phenylpenta-2,4-dien-1-one] displayed a melting point of 179.3 °C. Moreover, in data set [1], the IC50 amounted to 79.6 ± 4.3 µM and the ABTS-TEAC100 was found to be 0.69. Besides, the IC50 at 24 h in data set [2] is 126 ± 8 µM. In data set [3], the FRAP-TEAC100 is listed as 0.22, the “FRAP Assay (%) at 100 µM” value came to 14.0% and the “FRAP Assay (%) at 200 µM” value was determined as 20.7%.
In general, solubility refers to the concentration that dissolves in the medium under given conditions. On to `COc1cc(/C=C/C(=O)CC(=O)/C=C/c2ccc(O)c(OC)c2)ccc1O` [Curcumin, reference compound], for which the “Cell viability after H2O2 (neuroprotection)” value in the data set on SH-SY5Y cells is “slight protection”. In data set [2], this compound yielded an IC50 at 24 h of 48.8 ± 5.1 µM. The compound also came in with a solubility at 2 h in data set [4] of 24 ± 3 µg/mL (≈ 65.1 µM). For the same compound, the “Remaining Compound (%) 0 h” value in data set [5] (0 h) was 100%. For the same compound, the “Remaining Compound (%) 6 h” value in data set [5] (6 h) turned out to be 55.9 ± 10.6%. For the same compound, in data set [5] (24 h), the “Remaining Compound (%) 24 h” value is recorded as 42.9 ± 9.0%. Further, the “Remaining Compound (%) 48 h” value in data set [5] (48 h) came to 38.1 ± 7.4%.
The compound `COc1cc(/C=C/C(O)=C/C(=O)c2ccccc2)ccc1O` [Compound 1a, (2Z,4E)-3-Hydroxy-5-(4-hydroxy-3-methoxyphenyl)-1-phenylpenta-2,4-dien-1-one] came in with a melting point of 159.9 °C. In data set [1], the IC50 turned out to be 50.5 ± 2 µM and the ABTS-TEAC100 is reported as 0.88. In addition, the IC50 in data set [6] came to 42.3 ± 3.4 µM. In data set [2], this compound had an IC50 at 24 h of 104 ± 6.7 µM. In data set [3], the FRAP-TEAC100 worked out at 0.59, the “FRAP Assay (%) at 100 µM” value came out at 32.2% and the “FRAP Assay (%) at 200 µM” value is 55.7%.
